Test results published in ChEMBL document CHEMBL3885881, “DrugMatrix”.

Species: Rattus norvegicus
Assay: DrugMatrix - Regimen: Daily Repeat
Format: toxicity, organism-based, Sprague-Dawley
Parameters: regimen Daily Repeat, gender Male, age 6-8 weeks
Details: in vivo, po, 0 mg/kg, route oral GAVAGE, dose level Control, vehicle .5 % CMC; for BASOPHIL / EOSINOPHIL / ERYTHROCYTE COUNT / HEMATOCRIT / HEMOGLOBIN / LEUKOCYTE COUNT / LYMPHOCYTE / MEAN CORPUSCULAR HEMOGLOBIN / MEAN CORPUSCULAR HEMOGLOBIN CONCENTRATION / MEAN CORPUSCULAR VOLUME / MONOCYTE / NEUTROPHIL / PLATELET COUNT: tissue Blood; for ALANINE AMINOTRANSFERASE / ALBUMIN / ALKALINE PHOSPHATASE / ASPARTATE AMINOTRANSFERASE / BLOOD UREA NITROGEN / CHLORIDE / CHOLESTEROL / CREATINE PHOSPHOKINASE / CREATININE / GLUCOSE / PHOSPHORUS / POTASSIUM / SODIUM / TOTAL BILIRUBIN / TOTAL PROTEIN: tissue Plasma

SMILES: Clc1ccccc1CN1CCc2sccc2C1 [TICLOPIDINE]
- BASOPHIL (72 h, time 3 day): 0%
- EOSINOPHIL (72 h, time 3 day): 0%
- ERYTHROCYTE COUNT (72 h, time 3 day): 6.19 x10E6/uL
- HEMATOCRIT (72 h, time 3 day): 36.94%
- HEMOGLOBIN (72 h, time 3 day): 14.58 G/DL
- LEUKOCYTE COUNT (72 h, time 3 day): 11.54 x10E3/uL
- LYMPHOCYTE (72 h, time 3 day): 84.8%
- MEAN CORPUSCULAR HEMOGLOBIN (72 h, time 3 day): 23.58 pg
- MEAN CORPUSCULAR HEMOGLOBIN CONCENTRATION (72 h, time 3 day): 39.44 G/DL
- MEAN CORPUSCULAR VOLUME (72 h, time 3 day): 59.76 fL
- MONOCYTE (72 h, time 3 day): 1.4%
- NEUTROPHIL (72 h, time 3 day): 13.8%
- PLATELET COUNT (72 h, time 3 day): 1068.8 x10E3/uL
- ALANINE AMINOTRANSFERASE (72 h, time 3 day): 38.17 u/L
- ALBUMIN (72 h, time 3 day): 3.88 G/DL
- ALKALINE PHOSPHATASE (72 h, time 3 day): 391.33 u/L
- ASPARTATE AMINOTRANSFERASE (72 h, time 3 day): 69.83 u/L
- BLOOD UREA NITROGEN (72 h, time 3 day): 15 mg/dL
- CHLORIDE (72 h, time 3 day): 104.17 MEQ/L
- CHOLESTEROL (72 h, time 3 day): 72.17 mg/dL
- CREATINE PHOSPHOKINASE (72 h, time 3 day): 174.33 u/L
- CREATININE (72 h, time 3 day): 0.58 mg/dL
- GLUCOSE (72 h, time 3 day): 192.67 mg/dL
- PHOSPHORUS (72 h, time 3 day): 10.52 mg/dL
- POTASSIUM (72 h, time 3 day): 6.8 MEQ/L
- SODIUM (72 h, time 3 day): 149.67 MEQ/L
- TOTAL BILIRUBIN (72 h, time 3 day): 0.78 mg/dL
- TOTAL PROTEIN (72 h, time 3 day): 6.28 G/DL
- BASOPHIL (120 h, time 5 day): 0%
- EOSINOPHIL (120 h, time 5 day): 0.17%
- ERYTHROCYTE COUNT (120 h, time 5 day): 6.72 x10E6/uL
- HEMATOCRIT (120 h, time 5 day): 40.02%
- HEMOGLOBIN (120 h, time 5 day): 15.83 G/DL
- LEUKOCYTE COUNT (120 h, time 5 day): 9.5 x10E3/uL
- LYMPHOCYTE (120 h, time 5 day): 87.17%
- MEAN CORPUSCULAR HEMOGLOBIN (120 h, time 5 day): 23.57 pg
- MEAN CORPUSCULAR HEMOGLOBIN CONCENTRATION (120 h, time 5 day): 39.62 G/DL
- MEAN CORPUSCULAR VOLUME (120 h, time 5 day): 59.55 fL
- MONOCYTE (120 h, time 5 day): 1.67%
- NEUTROPHIL (120 h, time 5 day): 11%
- PLATELET COUNT (120 h, time 5 day): 1053.67 x10E3/uL
- ALANINE AMINOTRANSFERASE (120 h, time 5 day): 26.33 u/L
- ALBUMIN (120 h, time 5 day): 4.02 G/DL
- ALKALINE PHOSPHATASE (120 h, time 5 day): 316.67 u/L
- ASPARTATE AMINOTRANSFERASE (120 h, time 5 day): 61.33 u/L
- BLOOD UREA NITROGEN (120 h, time 5 day): 18.67 mg/dL
- CHLORIDE (120 h, time 5 day): 108 MEQ/L
- CHOLESTEROL (120 h, time 5 day): 65.17 mg/dL
- CREATINE PHOSPHOKINASE (120 h, time 5 day): 161.17 u/L
- CREATININE (120 h, time 5 day): 0.75 mg/dL
- GLUCOSE (120 h, time 5 day): 177.33 mg/dL
- PHOSPHORUS (120 h, time 5 day): 9.72 mg/dL
- POTASSIUM (120 h, time 5 day): 6.18 MEQ/L
- SODIUM (120 h, time 5 day): 150.5 MEQ/L
- TOTAL BILIRUBIN (120 h, time 5 day): 0.68 mg/dL
- TOTAL PROTEIN (120 h, time 5 day): 6.55 G/DL
